Counter-ions that a name gives are not always drawn.

This test has as its system E. coli MG1655. In words: High-throughput screening of FDA-approved drug library for antibiotic adjuvants (growth inhibition, OD600). Format: cell-based, Escherichia coli. The note with it: library drug alone, LB medium, 96-well, 8 h static culture at 37°C, relative to PMBN (positive) and DMSO (negative) controls, %, table head prints no unit. How it is done: To screen for antibiotic adjuvants against GNB, […] library drugs or polymyxin B nonapeptide (PMBN, positive control) or dimethyl sulfoxide (DMSO, negative control). After 8 h of static culture at 37°C, the optical density at 600 nm (OD600) was measured using a microplate reader. Percentage inhibition was calculated as (ODN – ODX)/(ODN – ODP) × 100%, where ODX is the OD600 value for a test treated with drug X, and ODP and ODN are the OD600 values for the positive and negative control, respectively.
As for `O.c1cnc2c(c1)ccc1cccnc12` [1, 10-Phenanthroline monohydrate], the “Growth inhibition, Compound” value is 62%.

On to `Cc1cn([C@H]2C[C@H](F)[C@@H](CO)O2)c(=O)[nH]c1=O` [3'-Deoxy-3'-fluorothymidine], for which the “Growth inhibition, Compound” value came to 70%. Next, `Nc1ncn([C@@H]2O[C@H](CO)[C@@H](O)[C@H]2O)c(=O)n1` [5-Azacytidine]: 43%. Next, `NCC[C@H](O)C(=O)N[C@@H]1C[C@H](N)[C@@H](O[C@H]2O[C@H](CN)[C@@H](O)[C@H](O)[C@H]2O)[C@H](O)[C@H]1O[C@H]1O[C@H](CO)[C@@H](O)[C@H](N)[C@H]1O.O=S(=O)(O)O.O=S(=O)(O)O` [Amikacin Sulfate Salt]: 107%; `NCC[C@H](O)C(=O)N[C@@H]1C[C@H](N)[C@@H](O[C@H]2O[C@H](CN)[C@@H](O)[C@H](O)[C@H]2O)[C@H](O)[C@H]1O[C@H]1O[C@H](CO)[C@@H](O)[C@H](N)[C@H]1O.O=S(=O)(O)O.O=S(=O)(O)O` [Amikacin disulfate]: 108%; `NCC[C@H](O)C(=O)N[C@@H]1C[C@H](N)[C@@H](O[C@H]2O[C@H](CN)[C@@H](O)[C@H](O)[C@H]2O)[C@H](O)[C@H]1O[C@H]1O[C@H](CO)[C@@H](O)[C@H](N)[C@H]1O` [Amikacin]: 105%. With `CC1(C)S[C@@H]2[C@H](NC(=O)[C@H](N)c3ccc(O)cc3)C(=O)N2[C@H]1C(=O)[O-].[Na+]` [Amoxicillin Sodium] the figure was 98%; with `CC1(C)S[C@@H]2[C@H](NC(=O)[C@H](N)c3ccccc3)C(=O)N2[C@H]1C(=O)O` [Ampicillin sodium], 91%. As for `CN(C)[C@@H]1C(O)=C(C(N)=O)C(=O)[C@@]2(O)C(O)=C3C(=O)c4c(O)cccc4[C@@](C)(O)C3[C@H](O)C12.Cl` (stereo partly drawn) [Aquacycline], the “Growth inhibition, Compound” value stood at 110%. Next, `C[C@@H]1CC[C@H]2[C@@H](C)C(=O)O[C@@H]3O[C@@]4(C)CC[C@@H]1[C@]32OO4` [Artemisinin]: 40%; `NC(=O)[C@@H]1CC[C@@H]2CN1C(=O)N2OS(=O)(=O)O` [Avibactam sodium]: 46%; `CC[C@H]1OC(=O)[C@H](C)[C@@H](O[C@H]2C[C@@](C)(OC)[C@@H](O)[C@H](C)O2)[C@H](C)[C@@H](O[C@@H]2O[C@H](C)C[C@H](N(C)C)[C@H]2O)[C@](C)(O)C[C@@H](C)CN[C@H](C)[C@@H](O)[C@]1(C)O` [Azathramycin]: 114%. Take `CC[C@H]1OC(=O)[C@H](C)[C@@H](O[C@H]2C[C@@](C)(OC)[C@@H](O)[C@H](C)O2)[C@H](C)[C@@H](O[C@@H]2O[C@H](C)C[C@H](N(C)C)[C@H]2O)[C@](C)(O)C[C@@H](C)CN(C)[C@H](C)[C@@H](O)[C@]1(C)O` [Azithromycin dihydrate]: the “Growth inhibition, Compound” value was 111%. With `CC[C@H]1OC(=O)[C@H](C)[C@@H](O[C@H]2C[C@@](C)(OC)[C@@H](O)[C@H](C)O2)[C@H](C)[C@@H](O[C@@H]2O[C@H](C)C[C@H](N(C)C)[C@H]2O)[C@](C)(O)C[C@@H](C)CN(C)[C@H](C)[C@@H](O)[C@]1(C)O` [Azithromycin], the “Growth inhibition, Compound” value is listed as 109%. With `CC1(C)S[C@@H]2[C@H](NC(=O)[C@H](NC(=O)N3CCNC3=O)c3ccccc3)C(=O)N2[C@H]1C(=O)O` [Azlocillin sodium] the figure was 94%; with `CNC1CCCN(c2c(F)cc3c(=O)c(C(=O)O)cn(C4CC4)c3c2OC)C1` (stereo not drawn) [Balofloxacin], 108%; with `NC[C@H]1O[C@H](O[C@H]2[C@H](O)[C@@H](O[C@H]3O[C@H](CO)[C@@H](O)[C@H](N)[C@H]3O)[C@H](N)C[C@@H]2N)[C@H](N)[C@@H](O)[C@@H]1O` [Bekanamycin], 106%. With `S=C=NCc1ccccc1` [Benzyl isothiocyanate] the figure was 71%. Next, `CC1(C)S[C@@H]2[C@H](NC(=O)Cc3ccccc3)C(=O)N2[C@H]1C(=O)O` [Benzylpenicillin potassium]: 55%.

With `Cl.N[C@@H]1CCCCN(c2c(F)cc3c(=O)c(C(=O)O)cn(C4CC4)c3c2Cl)C1` [Besifloxacin HCl], the “Growth inhibition, Compound” value is 107%. Next, `C[C@@H](O)[C@H]1C(=O)N2C(C(=O)[O-])=C(SC3Cn4cnc[n+]4C3)[C@H](C)[C@H]12` (stereo partly drawn) [Biapenem]: 113%; `Oc1c(Cl)cc(Cl)cc1Sc1cc(Cl)cc(Cl)c1O` [Bithionol]: 86%.

In the case of `Cc1c(N)nc([C@H](CC(N)=O)NC[C@H](N)C(N)=O)nc1C(=O)N[C@H](C(=O)N[C@H](C)[C@@H](O)[C@H](C)C(=O)N[C@H](C(=O)NCCc1nc(-c2nc(C(=O)NCCC[S+](C)C)cs2)cs1)[C@@H](C)O)[C@@H](O[C@@H]1O[C@@H](CO)[C@@H](O)[C@H](O)[C@@H]1O[C@H]1O[C@H](CO)[C@@H](O)[C@H](OC(N)=O)[C@@H]1O)c1cnc[nH]1.O=S(=O)([O-])O` [Bleomycin Sulfate], the “Growth inhibition, Compound” value turned out to be 110%. Regarding `O=[N+]([O-])C(Br)(CO)CO` [Bronopol], the “Growth inhibition, Compound” value came out at 100%.

In the case of `Oc1c(Br)cc(Br)c2cccnc12` [Broxyquinoline], the “Growth inhibition, Compound” value was determined as 103%. Next, `Oc1c(Cl)cc(Cl)c2cccnc12` [Capitrol]: 118%; `COC(=O)N/N=C/c1c[n+]([O-])c2ccccc2[n+]1[O-]` [Carbadox]: 110%. Next, `CC1(C)S[C@@H]2[C@H](NC(=O)C(C(=O)O)c3ccccc3)C(=O)N2[C@H]1C(=O)O` (stereo partly drawn) [Carbenicillin disodium]: 89%; `N[C@@H](C(=O)N[C@@H]1C(=O)N2C(C(=O)O)=C(Cl)CS[C@H]12)c1ccccc1` [Cefaclor monohydrate]: 80%; `Cn1nnnc1SCC1=C(C(=O)O)N2C(=O)[C@@H](NC(=O)[C@H](OC=O)c3ccccc3)[C@H]2SC1` [Cefamandole nafate]: 88%. Next, `Cc1nnc(SCC2=C(C(=O)O)N3C(=O)[C@@H](NC(=O)Cn4cc(Cl)c(=O)c(Cl)c4)[C@H]3SC2)s1` [Cefazedone]: 111%. For `Cc1nnc(SCC2=C(C(=O)O)N3C(=O)[C@@H](NC(=O)Cn4cnnn4)[C@H]3SC2)s1` [Cefazolin sodium salt], the “Growth inhibition, Compound” value came to 90%.

With `Cc1nnc(SCC2=C(C(=O)O)N3C(=O)[C@@H](NC(=O)Cn4cnnn4)[C@H]3SC2)s1` [Cefazolin], the “Growth inhibition, Compound” value is 102%. Next, `C=CC1=C(C(=O)O)N2C(=O)[C@@H](NC(=O)/C(=N\O)c3csc(N)n3)[C@H]2SC1` [Cefdinir]: 100%. Next, `CO/N=C(\C(=O)N[C@@H]1C(=O)N2C(C(=O)OCOC(=O)C(C)(C)C)=C(/C=C\c3scnc3C)CS[C@H]12)c1csc(N)n1` [Cefditoren pivoxil]: 73%; `CO/N=C(\C(=O)N[C@@H]1C(=O)N2C(C(=O)O)=C(C[N+]3(C)CCCC3)CS[C@H]12)c1csc(N)n1` [Cefepime Dihydrochloride Monohydrate]: 83%. Next, `C=CC1=C(C(=O)O)N2C(=O)[C@@H](NC(=O)/C(=N\OCC(=O)O)c3csc(N)n3)[C@H]2SC1` [Cefixime]: 109%. Take `CO/N=C(\C(=O)N[C@@H]1C(=O)N2C(C(=O)O)=C(CSc3nnnn3C)CS[C@H]12)c1csc(N)n1.CO/N=C(\C(=O)N[C@@H]1C(=O)N2C(C(=O)O)=C(CSc3nnnn3C)CS[C@H]12)c1csc(N)n1.Cl` [Cefmenoxime hydrochloride]: the “Growth inhibition, Compound” value is 96%. With `CO[C@@]1(NC(=O)CSCC#N)C(=O)N2C(C(=O)O)=C(CSc3nnnn3C)CS[C@@H]21` [Cefmetazole sodium] the figure was 96%.

As to `CO/N=C(\C(=O)N[C@@H]1C(=O)N2C(C(=O)O)=C(CSc3nc(C)c(CC(=O)O)s3)CS[C@H]12)c1csc(N)n1` [Cefodizime Sodium], the “Growth inhibition, Compound” value is reported as 88%. Next, `O=C([O-])C1=C(CSc2nnnn2CS(=O)(=O)[O-])CS[C@@H]2[C@H](NC(=O)[C@H](O)c3ccccc3)C(=O)N12.[Na+].[Na+]` [Cefonicid sodium]: 59%; `CCN1CCN(C(=O)N[C@@H](C(=O)N[C@@H]2C(=O)N3C(C(=O)O)=C(CSc4nnnn4C)CS[C@H]23)c2ccc(O)cc2)C(=O)C1=O` [Cefoperazone]: 100%. Next, `NCc1ccccc1CC(=O)N[C@@H]1C(=O)N2C(C(=O)O)=C(CSc3nnnn3CC(=O)O)CS[C@H]12` [Ceforanide]: 94%. Next, `CO/N=C(\C(=O)N[C@@H]1C(=O)N2C(C(=O)[O-])=C(C[n+]3ccc(N)n3CCO)CS[C@H]12)c1csc(N)n1.O=S(=O)(O)O` [Cefoselis Sulfate]: 107%.

With `CO/N=C(\C(=O)N[C@@H]1C(=O)N2C(C(=O)O)=C(COC(C)=O)CS[C@H]12)c1csc(N)n1` [Cefotaxime sodium], the “Growth inhibition, Compound” value is on record as 99%.

Regarding `CO/N=C(\C(=O)N[C@@H]1C(=O)N2C(C(=O)O)=C(COC(C)=O)CS[C@H]12)c1csc(N)n1` [Cefotaxime], the “Growth inhibition, Compound” value amounted to 113%. For the compound `CO[C@@]1(NC(=O)C2SC(=C(C(N)=O)C(=O)O)S2)C(=O)N2C(C(=O)O)=C(CSc3nnnn3C)CS[C@@H]21` (stereo partly drawn) [Cefotetan], the “Growth inhibition, Compound” value came to 97%. Take `CC(OC(=O)OC1CCCCC1)OC(=O)C1=C(CSc2nnnn2CCN(C)C)CS[C@@H]2[C@H](NC(=O)Cc3csc(N)n3)C(=O)N12.Cl.Cl` (stereo partly drawn) [Cefotiam Hexetil Hydrochloride]: the “Growth inhibition, Compound” value came out at 87%.

Source of the values: article PMC11358092, “Caspofungin enhances the potency of rifampin against Gram-negative bacteria” (Frontiers in Microbiology, 2024).
